Measured values published in paper PMC8154124, “Design, Synthesis, Anticancer Evaluation, Enzymatic Assays, and a Molecular Modeling Study of Novel Pyrazole–Indole Hybrids” (ACS Omega, 2021).

Experiments:
[1] = system: human breast adenocarcinoma (MCF-7); assay: MTT cytotoxicity assay, MCF-7; assay type: cell-based; settings: MCF7, 48 h, mean ± SD
Procedure: (§1) The cells of human liver carcinoma (HepG2), human breast adenocarcinoma (MCF-7), human colorectal carcinoma (HCT-116), and human lung carcinoma (A549) were purchased from the American Type Culture Collection (Rockville, MD). All cells were maintained in a Dulbecco’s modified Eagle’s medium (DMEM), which was supplemented with 10% of heat-inactivated fetal bovine serum (FBS) and 100 U/mL penicillin and streptomycin each. The cells were grown at 37 °C in a humidified atmosphere of 5% CO2.
(§2) The cytotoxicity activities on the human liver carcinoma (HepG2), human breast adenocarcinoma (MCF-7), human colorectal carcinoma (HCT-116), and human lung carcinoma (A549) cell lines were estimated employing the 3-(4,5-dimethyl-2-thiazolyl)-2,5-diphenyl-2H-tetrazolium bromide (MTT) assay, which was grounded on the reduction of the tetrazolium salt by mitochondrial dehydrogenases in viable cells.[51],[52] The cells were dispensed in a 96-well sterile microplate (3 × 10^4 cells/well), followed by their incubation at 37 °C with a series of different concentrations of 10 μL of each compound or doxorubicin (positive control, in DMSO) for 48 h in a serum-free medium prior to the MTT assay. Subsequently, the media were carefully removed, and 40 μL of MTT (2.5 mg/mL) was added to each well and then incubated for an additional 4 h. Purple formazan dye crystals were solubilized by the addition of 200 μL of DMSO. The absorbance was measured at 570 nm using a SpectraMax Paradigm Multi-Mode microplate reader. The relative cell viability was expressed as the mean percentage of viable cells relative to the untreated control cells. All experiments were conducted in triplicate and were repeated on three different days. All of the values were represented as mean ± standard deviation (SD). The IC50s were determined by the SPSS probit analysis software program (SPSS Inc., Chicago, IL).

[2] = system: human liver carcinoma (HepG2); assay: MTT cytotoxicity assay, HepG2; assay type: cell-based; settings: 48 h, mean ± SD
Procedure: as §1, §2

[3] = system: human lung carcinoma (A549); assay: MTT cytotoxicity assay, A549; assay type: cell-based; settings: 48 h, mean ± SD
Procedure: as §1, §2

[4] = system: human colorectal carcinoma (HCT-116); assay: MTT cytotoxicity assay, HCT-116; assay type: cell-based; settings: 48 h, mean ± SD
Procedure: as §1, §2

SMILES	IC50 [1] [µM]	IC50 [2] [µM]	IC50 [3] [µM]	IC50 [4] [µM]	melting point [°C]
CCN1C(=O)C(=Nc2[nH]nc(Nc3ccccc3)c2C(=O)Nc2ccccc2)c2ccccc21 [5f, 5-(1-Ethyl-2-oxoindolin-3-ylideneamino)-N-phenyl-3-(phenylamino)-1H-pyrazole-4-carboxamide]	42.1 ± 4.7	23.7 ± 3.1	52.9 ± 4.5	28.9 ± 3.9	–
CCN1C(=O)C(=Nc2[nH]nc(Nc3ccc(OC)cc3)c2C(=O)Nc2ccccc2)c2ccccc21 [5i, 5-(1-Ethyl-2-oxoindolin-3-ylideneamino)-3-(4-methoxyphenylamino)-N-phenyl-1H-pyrazole-4-carboxamide]	30.1 ± 4.2	26.7 ± 3.1	47.8 ± 4.5	53.9 ± 5.7	–
COc1ccc(Nc2n[nH]c(N=C3C(=O)N(C)c4ccccc43)c2C(=O)Nc2ccc(C)cc2)cc1 [5e, 3-(4-Methoxyphenylamino)-5-(1-methyl-2-oxoindolin-3-ylideneamino)-N-(4-methylphenyl)-1H-pyrazole-4-carboxamide]	61.8 ± 5.1	32 ± 3.9	77.7 ± 5.6	39.9 ± 4.2	–
CCN1C(=O)C(=Nc2[nH]nc(Nc3ccccc3)c2C(=O)Nc2ccc(C)cc2)c2ccccc21 [5g, 5-(1-Ethyl-2-oxoindolin-3-ylideneamino)-3-(phenylamino)-N-(4-methylphenyl)-1H-pyrazole-4-carboxamide]	54 ± 4.9	27.8 ± 3.5	46.8 ± 5.3	35.7 ± 3.9	–
COc1ccc(Nc2n[nH]c(N=C3C(=O)N(C)c4ccccc43)c2C(=O)Nc2ccccc2)cc1 [5d, 3-(4-Methoxyphenylamino)-5-(1-methyl-2-oxoindolin-3-ylideneamino)-N-phenyl-1H-pyrazole-4-carboxamide]	46.4 ± 4.5	34.8 ± 3.9	56 ± 4.1	54.2 ± 5.5	–
CCN1C(=O)C(=Nc2[nH]nc(Nc3ccc(OC)cc3)c2C(N)=O)c2ccccc21 [5h, 5-(1-Ethyl-2-oxoindolin-3-ylideneamino)-3-(4-methoxyphenylamino)-1H-pyrazole-4-carboxamide]	25.4 ± 3.9	28.2 ± 3.5	41.9 ± 3.9	25.7 ± 4.3	269 to 271
COc1ccc(Nc2n[nH]c(N=Cc3c[nH]c4ccccc34)c2C(=O)Nc2ccc(C)cc2)cc1 [7e, 5-((1H-Indol-3-yl)methyleneamino)-3-(4-methoxyphenylamino)-N-(4-methylphenyl)-1H-pyrazole-4-carboxamide]	16.2 ± 2.3	25.8 ± 3.5	40.8 ± 4.3	37.4 ± 4.1	–
Cc1ccc(NC(=O)c2c(Nc3ccccc3)n[nH]c2N=C2C(=O)N(C)c3ccccc32)cc1 [5b, 5-(1-Methyl-2-oxoindolin-3-ylideneamino)-3-(phenylamino)-N-(4-methylphenyl)-1H-pyrazole-4-carboxamide]	48 ± 5.1	37.1 ± 4.3	46.7 ± 4.9	28.1 ± 3.5	–
CCN1C(=O)C(=Nc2[nH]nc(Nc3ccc(OC)cc3)c2C(=O)Nc2ccc(C)cc2)c2ccccc21 [5j, 5-(1-Ethyl-2-oxoindolin-3-ylideneamino)-3-(4-methoxyphenylamino)-N-(4-methylphenyl)-1H-pyrazole-4-carboxamide]	63.7 ± 5.5	24.4 ± 2.9	57 ± 4.9	38.9 ± 4.1	–
COc1ccc(Nc2n[nH]c(N=Cc3c[nH]c4ccccc34)c2C(=O)Nc2ccccc2)cc1 [7d, 5-((1H-Indol-3-yl)methyleneamino)-3-(4-methoxyphenylamino)-N-phenyl-1H-pyrazole-4-carboxamide]	17.4 ± 2.3	27.2 ± 3.5	58.7 ± 4.2	25.3 ± 3.5	–
COc1ccc(Nc2n[nH]c(N=Cc3c[nH]c4ccccc34)c2C(N)=O)cc1 [7c, 5-((1H-Indol-3-yl)methyleneamino)-3-(4-methoxyphenylamino)-1H-pyrazole-4-carboxamide]	22.2 ± 3.3	35.8 ± 3.9	43.4 ± 4.2	31.9 ± 3.8	260 to 262
COc1cccc2c1C(=O)c1c(O)c3c(c(O)c1C2=O)C[C@@](O)(C(=O)CO)C[C@@H]3O[C@H]1C[C@H](N)[C@H](O)[C@H](C)O1 [doxorubicin, reference compound]	64.8 ± 4.1	24.7 ± 3.2	58.1 ± 4.1	40 ± 3.9	–
CN1C(=O)C(=Nc2[nH]nc(Nc3ccccc3)c2C(=O)Nc2ccccc2)c2ccccc21 [5a, 5-(1-Methyl-2-oxoindolin-3-ylideneamino)-N-phenyl-3-(phenylamino)-1H-pyrazole-4-carboxamide]	28.3 ± 3.5	27.6 ± 3.1	42.8 ± 4.2	25.7 ± 3.5	–
COc1ccc(Nc2n[nH]c(N=C3C(=O)N(C)c4ccccc43)c2C(N)=O)cc1 [5c, 3-(4-Methoxyphenylamino)-5-(1-methyl-2-oxoindolin-3-ylideneamino)-1H-pyrazole-4-carboxamide]	22 ± 3.5	32.8 ± 3.8	40.7 ± 4.1	39.5 ± 4.5	265 to 267
